Source: patent US10501451B2, “Selective NR2B antagonists” (BRISTOL-MYERS SQUIBB COMPANY, priority 2015, dated 2019)
Where two headings read alike, the source gives them in different places. Values belong to the compound of their own block, whether it stands above or below them.

Molecular target: NR2B-subtype NMDA receptors (Rattus norvegicus (Rat), UniProt P35439+Q00960)
Assay: Radioligand binding assay (3H Ro 25-6981 competition, rat forebrain membranes)
Settings: 3H Ro 25-6981 (4 nM)
Procedure: Radioligand Binding Assay. Binding experiments to determine binding to NR2B-subtype NMDA receptors were performed on forebrains of 8-10 weeks old male Sprague Dawley rats (Harlan, Netherlands) using ^3H Ro 25-6981 (Mutel V; Buchy D; Klingelschmidt A; Messer J; Bleuel Z; Kemp J A; Richards J G. Journal of Neurochemistry, 1998, 70(5):2147-2155. Rats were decapitated without anesthesia using a Guillotine (approved by animal ethics committee) and the harvested brains were snap-frozen and stored at −80° C. for 3-6 months for membrane preparation.
For membrane preparation, rat forebrains were thawed on ice for 20 minutes in homogenization buffer composed of 50 mM KH2PO4 (pH adjusted to 7.4 with KOH), 1 mM EDTA, 0.005% Triton X 100 and protease inhibitor cocktail (Sigma Aldrich). Thawed brains were homogenized using a Dounce homogenizer and centrifuged at 48000×g for 20 min. The pellet was resuspended in cold buffer and homogenized again using a Dounce homogenizer. Subsequently, the homogenate was aliquoted, snap-frozen and stored at −80° C. for not more than 3-4 months.
To perform the competition binding assay, thawed membrane homogenate was added to each well of a 96-well plate (20 μg/well). The experimental compounds were serially diluted in 100% DMSO and added to each row of the assay plate to achieve desired compound concentrations, keeping the DMSO concentration in the assay plate at 1.33% of the final reaction volume. Next, ^3H Ro 25-6981 (4 nM) was added to the assay plate. After incubation for 1 hr at room temperature, the membrane bound radioligand was harvested on to GF/B filter plates (treated with 0.5% PEI for 1 hr at room temperature). The filter plates were dried at 50° C. for 20 mins, incubated with microscint 20 for 10 minutes and finally, the counts were read on TopCount (Perkin Elmer).

NR2B-subtype NMDA receptors, sequence (Q00960 27-1482, other chains not shown): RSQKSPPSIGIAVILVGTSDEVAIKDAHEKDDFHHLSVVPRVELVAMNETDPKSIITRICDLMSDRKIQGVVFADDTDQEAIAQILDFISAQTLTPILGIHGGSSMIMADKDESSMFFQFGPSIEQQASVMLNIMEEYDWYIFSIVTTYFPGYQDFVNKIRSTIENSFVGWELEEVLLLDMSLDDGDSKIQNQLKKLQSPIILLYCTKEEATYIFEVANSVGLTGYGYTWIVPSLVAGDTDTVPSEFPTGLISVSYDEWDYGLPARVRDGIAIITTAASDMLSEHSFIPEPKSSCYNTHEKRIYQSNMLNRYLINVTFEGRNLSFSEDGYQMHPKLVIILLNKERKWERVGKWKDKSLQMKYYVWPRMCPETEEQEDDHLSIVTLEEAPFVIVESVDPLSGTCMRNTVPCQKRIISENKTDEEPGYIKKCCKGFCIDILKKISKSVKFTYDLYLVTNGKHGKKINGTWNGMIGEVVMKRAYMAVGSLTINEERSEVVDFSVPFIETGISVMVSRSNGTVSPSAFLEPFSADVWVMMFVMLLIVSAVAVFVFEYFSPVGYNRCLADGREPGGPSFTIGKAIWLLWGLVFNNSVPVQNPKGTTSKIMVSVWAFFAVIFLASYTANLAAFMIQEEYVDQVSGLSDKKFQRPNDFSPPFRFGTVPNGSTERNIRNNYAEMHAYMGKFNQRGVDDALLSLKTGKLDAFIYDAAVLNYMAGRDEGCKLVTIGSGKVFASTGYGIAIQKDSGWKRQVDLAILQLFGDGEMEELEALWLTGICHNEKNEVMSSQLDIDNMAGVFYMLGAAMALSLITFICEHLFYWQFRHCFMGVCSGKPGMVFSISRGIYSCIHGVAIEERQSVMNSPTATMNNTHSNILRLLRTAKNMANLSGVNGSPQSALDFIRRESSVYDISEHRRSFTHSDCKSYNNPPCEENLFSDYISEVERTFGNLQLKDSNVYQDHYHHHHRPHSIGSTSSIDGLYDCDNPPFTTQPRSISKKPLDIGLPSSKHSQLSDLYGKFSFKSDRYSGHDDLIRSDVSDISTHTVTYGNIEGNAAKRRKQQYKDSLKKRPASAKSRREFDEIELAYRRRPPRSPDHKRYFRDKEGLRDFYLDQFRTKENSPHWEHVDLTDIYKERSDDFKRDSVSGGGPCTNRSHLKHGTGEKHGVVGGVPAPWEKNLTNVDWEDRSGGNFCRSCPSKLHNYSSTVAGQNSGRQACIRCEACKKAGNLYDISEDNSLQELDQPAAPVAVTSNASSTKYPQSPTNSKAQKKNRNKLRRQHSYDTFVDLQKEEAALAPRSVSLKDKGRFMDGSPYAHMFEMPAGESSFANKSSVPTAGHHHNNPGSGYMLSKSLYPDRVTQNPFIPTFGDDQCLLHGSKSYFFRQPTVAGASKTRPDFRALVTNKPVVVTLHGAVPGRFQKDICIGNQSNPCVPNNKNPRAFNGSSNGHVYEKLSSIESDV

Ki (listed as 15, P-2, read-out: NR2B Binding Ki): 12.5 nM
Compound: O=C1C(N2CC[C@@H](c3ccc(O)cc3)[C@H](F)C2)CCON1Cc1ccc(F)cc1 (single isomer, unassigned) [Example 15, P-2]

Ki (listed as 14, P-1, read-out: NR2B Binding Ki): 98.7 nM
Compound: O=C1C(N2CCC(c3ccc(O)c(F)c3)C(F)C2)CCON1Cc1ccc(Cl)cc1 (single isomer, unassigned) [Example 14, P-1, 2-(4-chlorobenzyl)-4-(3-fluoro-4-(3-fluoro-4-hydroxyphenyl)piperidin-1-yl)-1,2-oxazinan-3-one]

Ki (listed as 11, P-2, read-out: NR2B Binding Ki): 39.3 nM
Compound: Cc1ccc(CN2OCCC(N3CCC(c4ccc(O)c(F)c4)C(F)C3)C2=O)cc1 (single isomer, unassigned) [Example 11, P-2, 4-(3-fluoro-4-(3-fluoro-4-hydroxyphenyl)piperidin-1-yl)-2-(4-methylbenzyl)-1,2-oxazinan-3-one]

Ki (listed as 12, P-2, read-out: NR2B Binding Ki): 150 nM
Compound: O=C1C(N2CC[C@@H](c3ccc(O)cc3)[C@H](F)C2)CCON1Cc1ccc(Cl)cc1 (single isomer, unassigned) [Example 12, P-2]

Ki (listed as 13, P-1, read-out: NR2B Binding Ki): 367 nM
Compound: O=C1C(N2CCC(c3ccc(O)c(F)c3)C(F)C2)CCON1Cc1ccc(F)cc1 (single isomer, unassigned) [Example 13, P-1, 4-(3-fluoro-4-(3-fluoro-4-hydroxyphenyl)piperidin-1-yl)-2-(4-fluorobenzyl)-1,2-oxazinan-3-one]

Ki (listed as 15, P-1, read-out: NR2B Binding Ki): 393 nM
Compound: O=C1C(N2CC[C@@H](c3ccc(O)cc3)[C@H](F)C2)CCON1Cc1ccc(F)cc1 (single isomer, unassigned) [Example 15, P-1]

Ki (listed as 12, P-1, read-out: NR2B Binding Ki): 3.9 nM
Compound: O=C1C(N2CC[C@@H](c3ccc(O)cc3)[C@H](F)C2)CCON1Cc1ccc(Cl)cc1 (single isomer, unassigned) [Example 12, P-1]

Ki (listed as 11, P-1, read-out: NR2B Binding Ki): 3.06 nM
Compound: Cc1ccc(CN2OCCC(N3CCC(c4ccc(O)c(F)c4)C(F)C3)C2=O)cc1 (single isomer, unassigned) [Example 11, P-1, 4-(3-fluoro-4-(3-fluoro-4-hydroxyphenyl)piperidin-1-yl)-2-(4-methylbenzyl)-1,2-oxazinan-3-one]

Ki (listed as 14, P-2, read-out: NR2B Binding Ki): 2.8 nM
Compound: O=C1C(N2CCC(c3ccc(O)c(F)c3)C(F)C2)CCON1Cc1ccc(Cl)cc1 (single isomer, unassigned) [Example 14, P-2, 2-(4-chlorobenzyl)-4-(3-fluoro-4-(3-fluoro-4-hydroxyphenyl)piperidin-1-yl)-1,2-oxazinan-3-one]

Ki (listed as 13, P-2, read-out: NR2B Binding Ki): 4.03 nM
Compound: O=C1C(N2CCC(c3ccc(O)c(F)c3)C(F)C2)CCON1Cc1ccc(F)cc1 (single isomer, unassigned) [Example 13, P-2, 4-(3-fluoro-4-(3-fluoro-4-hydroxyphenyl)piperidin-1-yl)-2-(4-fluorobenzyl)-1,2-oxazinan-3-one]

The remaining lines, values behind:

Compound: Cc1ccc(CN2OCC(N3CCN(c4ccc(O)cn4)CC3)C2=O)cc1 (single isomer, unassigned) [Example 10, P-2, 4-(4-(5-hydroxypyridin-2-yl)piperazin-1-yl)-2-(4-methylbenzyl)isoxazolidin-3-one]
Ki (listed as 10, P-2, read-out: NR2B Binding Ki): 10.7 nM

Compound: Cc1ccc(CN2OCCC(N3CCN(c4ccc(O)cn4)CC3)C2=O)cc1 (single isomer, unassigned) [Example 8, P-2, 4-(4-(5-hydroxypyridin-2-yl)piperazin-1-yl)-2-(4-methylbenzyl)-1,2-oxazinan-3-one]
Ki (listed as 8, P-2, read-out: NR2B Binding Ki): 18.8 nM

Compound: Cc1ccc(CN2OCC(N3CCC(c4ccc(O)cn4)CC3)C2=O)cc1 (single isomer, unassigned) [Example 9, P-1, 4-(4-(5-hydroxypyridin-2-yl)piperidin-1-yl)-2-(4-methylbenzyl)isoxazolidin-3-one]
Ki (listed as 9, P-1, read-out: NR2B Binding Ki): 139 nM

Compound: O=C1C(N2CCC(c3ccc(O)cc3)CC2)CON1Cc1ccc(F)cc1 (single isomer, unassigned) [Example 1, P-1, 2-(4-fluorobenzyl)-4-(4-(4-hydroxyphenyl)piperidin-1-yl)isoxazolidin-3-one]
Ki (P-1, read-out: NR2B Binding Ki): 305 nM

Compound: Cc1ccc(CN2OCC(N3CCC(c4ccc(O)cc4)CC3)C2=O)cc1 (single isomer, unassigned) [Example 2, P-1, 4-(4-(4-hydroxyphenyl)piperidin-1-yl)-2-(4-methylbenzyl)isoxazolidin-3-one]
Ki (listed as 2, P-1, read-out: NR2B Binding Ki): 112 nM

Compound: Cc1ccc(CN2OCCC(N3CC[C@H](c4ccc(O)cc4)[C@@H](F)C3)C2=O)cc1 (single isomer, unassigned) [Example 7, P-1]
Ki (listed as 7, P-1, read-out: NR2B Binding Ki): 125 nM

Compound: Cc1ccc(CN2OCCC(N3CCC(c4ccc(O)cn4)CC3)C2=O)cc1 (single isomer, unassigned) [Example 6, P-2, 4-(4-(5-hydroxypyridin-2-yl)piperidin-1-yl)-2-(4-methylbenzyl)-1,2-oxazinan-3-one]
Ki (listed as 6, P-2, read-out: NR2B Binding Ki): 8.16 nM

Compound: Cc1ccc(CN2OCCC(N3CC[C@@H](c4ccc(O)cc4)[C@H](F)C3)C2=O)cc1 (single isomer, unassigned) [Example 5, P-1]
Ki (listed as 5, P-1, read-out: NR2B Binding Ki): 144 nM

Compound: Cc1ccc(CN2OCCC(N3CCC(c4ccc(O)cn4)CC3)C2=O)cc1 (single isomer, unassigned) [Example 6, P-1, 4-(4-(5-hydroxypyridin-2-yl)piperidin-1-yl)-2-(4-methylbenzyl)-1,2-oxazinan-3-one]
Ki (listed as 6, P-1, read-out: NR2B Binding Ki): 6.53 nM

Compound: Cc1ccc(CN2OCC(N3CCC(c4ccc(O)cn4)CC3)C2=O)cc1 (single isomer, unassigned) [Example 9, P-2, 4-(4-(5-hydroxypyridin-2-yl)piperidin-1-yl)-2-(4-methylbenzyl)isoxazolidin-3-one]
Ki (listed as 9, P-2, read-out: NR2B Binding Ki): 12.1 nM

Compound: Cc1ccc(CN2OCCC(N3CC[C@H](c4ccc(O)cc4)[C@@H](F)C3)C2=O)cc1 (single isomer, unassigned) [Example 7, P-2]
Ki (listed as 7, P-2, read-out: NR2B Binding Ki): 4.98 nM

Compound: Cc1ccc(CN2OCCC(N3CCN(c4ccc(O)cn4)CC3)C2=O)cc1 (single isomer, unassigned) [Example 8, P-1, 4-(4-(5-hydroxypyridin-2-yl)piperazin-1-yl)-2-(4-methylbenzyl)-1,2-oxazinan-3-one]
Ki (listed as 8, P-1, read-out: NR2B Binding Ki): 57.8 nM

Compound: O=C1C(N2CCC(c3ccc(O)cc3)CC2)CON1Cc1ccc(F)cc1 (single isomer, unassigned) [Example 1, P-2, 2-(4-fluorobenzyl)-4-(4-(4-hydroxyphenyl)piperidin-1-yl)isoxazolidin-3-one]
Ki (listed as 1, P-2, read-out: NR2B Binding Ki): 4.08 nM

Compound: Cc1ccc(CN2OCCC(N3CC[C@@H](c4ccc(O)cc4)[C@H](F)C3)C2=O)cc1 (single isomer, unassigned) [Example 5, P-2]
Ki (listed as 5, P-2, read-out: NR2B Binding Ki): 4.37 nM
